The source made the active and inactive calls.

The results in this text go back to ChEMBL document CHEMBL1201862, “PubChem BioAssay data set” (2004).

The target in assay [1] is T1, Sentrin-specific protease 8 (Homo sapiens, UniProt Q96LD8).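 Note: luminescence read-out of SENP8 inhibition, dose-response confirmation following an ultra-high-throughput screen.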
T1 sequence (Q96LD8 whole entry): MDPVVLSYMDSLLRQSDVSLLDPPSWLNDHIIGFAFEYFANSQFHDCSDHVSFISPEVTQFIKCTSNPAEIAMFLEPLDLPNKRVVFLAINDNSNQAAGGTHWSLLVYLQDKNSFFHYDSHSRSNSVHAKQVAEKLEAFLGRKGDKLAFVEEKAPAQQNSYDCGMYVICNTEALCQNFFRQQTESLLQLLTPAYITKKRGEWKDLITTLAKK
The class given is functional.

A further assay concerns the target T2, Protein skinhead-1 (Caenorhabditis elegans, UniProt P34707).
T2 sequence (P34707 whole entry): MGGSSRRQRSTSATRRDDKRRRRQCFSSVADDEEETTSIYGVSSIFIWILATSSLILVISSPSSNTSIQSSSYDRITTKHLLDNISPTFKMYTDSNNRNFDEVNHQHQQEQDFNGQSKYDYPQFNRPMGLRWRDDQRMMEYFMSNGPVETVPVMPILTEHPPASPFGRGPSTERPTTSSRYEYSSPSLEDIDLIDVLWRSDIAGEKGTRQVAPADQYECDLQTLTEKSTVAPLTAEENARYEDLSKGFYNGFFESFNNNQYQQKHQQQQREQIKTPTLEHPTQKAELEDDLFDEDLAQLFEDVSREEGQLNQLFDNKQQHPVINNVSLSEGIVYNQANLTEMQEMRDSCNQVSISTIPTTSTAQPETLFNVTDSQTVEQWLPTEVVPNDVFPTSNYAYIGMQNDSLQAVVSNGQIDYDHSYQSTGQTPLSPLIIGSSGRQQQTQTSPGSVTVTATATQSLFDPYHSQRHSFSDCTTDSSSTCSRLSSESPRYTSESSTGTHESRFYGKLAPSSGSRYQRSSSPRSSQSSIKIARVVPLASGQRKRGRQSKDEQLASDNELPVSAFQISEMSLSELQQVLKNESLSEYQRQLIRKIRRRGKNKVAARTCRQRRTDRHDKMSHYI
The class given is functional.

Assay [2] can be described thus: Luminescence Cell-Based Dose Response HTS to Identify Activators of Luciferase Translation or Activity in H4 […] Cells. [Related pubchem assays: 1829 (Project Summary), 1814 (Primary HTS)]. The class given is functional.
Assay [3] in a line: Luminescence Cell-Based Dose Confirmation HTS to Identify Activators of 5'UTR Stem-Loop Driven Alpha-Synuclein mRNA Translation in H4 Neuroglioblastoma Cells. [Related pubchem assays: 1829 (Project Summary), 1814 (Primary HTS)]. The class given is functional.
For assay [4], the target named is T3, Sentrin-specific protease 7 (Homo sapiens, UniProt Q9BQF6).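 Note: Luminescence-based dose-response confirmation of ultra-high-throughput screening hits, measuring inhibition of SENP7.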
T3 sequence (Q9BQF6 whole entry): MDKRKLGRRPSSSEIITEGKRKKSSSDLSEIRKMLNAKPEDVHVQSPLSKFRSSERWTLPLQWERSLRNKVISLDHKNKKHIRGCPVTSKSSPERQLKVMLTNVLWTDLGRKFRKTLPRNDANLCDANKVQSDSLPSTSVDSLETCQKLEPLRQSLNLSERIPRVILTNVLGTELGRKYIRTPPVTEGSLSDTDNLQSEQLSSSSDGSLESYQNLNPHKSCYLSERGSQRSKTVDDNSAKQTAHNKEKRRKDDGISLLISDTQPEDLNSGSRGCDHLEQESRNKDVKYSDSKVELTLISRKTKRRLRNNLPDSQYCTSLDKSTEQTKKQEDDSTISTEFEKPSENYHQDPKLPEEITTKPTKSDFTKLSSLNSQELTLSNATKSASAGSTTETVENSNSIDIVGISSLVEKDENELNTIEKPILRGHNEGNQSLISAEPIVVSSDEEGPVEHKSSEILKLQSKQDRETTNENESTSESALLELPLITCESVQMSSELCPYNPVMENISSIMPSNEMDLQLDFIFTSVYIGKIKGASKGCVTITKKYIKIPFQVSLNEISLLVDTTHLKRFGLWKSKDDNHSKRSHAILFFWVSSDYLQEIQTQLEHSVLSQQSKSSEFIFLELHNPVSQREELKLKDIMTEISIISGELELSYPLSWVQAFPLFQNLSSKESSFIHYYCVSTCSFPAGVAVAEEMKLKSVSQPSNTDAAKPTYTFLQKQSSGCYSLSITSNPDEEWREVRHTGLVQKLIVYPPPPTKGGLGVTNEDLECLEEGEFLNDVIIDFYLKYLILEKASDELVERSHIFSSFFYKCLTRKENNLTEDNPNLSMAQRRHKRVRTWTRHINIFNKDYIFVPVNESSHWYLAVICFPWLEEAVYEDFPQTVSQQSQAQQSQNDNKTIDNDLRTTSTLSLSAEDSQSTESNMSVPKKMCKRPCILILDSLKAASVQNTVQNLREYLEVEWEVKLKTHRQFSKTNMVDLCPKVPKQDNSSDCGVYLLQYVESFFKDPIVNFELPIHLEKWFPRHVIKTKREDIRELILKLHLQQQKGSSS
The class given is functional.

Another assay has as its system H4. As to the kind of experiment: Luminescence Cell-Based Dose Response HTS to Identify Activators of 5'UTR Stem-Loop Driven Prion Protein mRNA Translation in H4 Neuroglioblastoma Cells. [Related pubchem assays: 1829 (Project Summary), 1814 (Primary HTS)]. The class given is functional. The conditions noted are these: Homo sapiens.
In assay [5] the target is T4, Sentrin-specific protease 6 (Homo sapiens, UniProt Q9GZR1).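 Note: Luminescence-based dose-response confirmatory assay of SENP6 inhibition, following up an ultra-high-throughput screen.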
T4 sequence (Q9GZR1 whole entry): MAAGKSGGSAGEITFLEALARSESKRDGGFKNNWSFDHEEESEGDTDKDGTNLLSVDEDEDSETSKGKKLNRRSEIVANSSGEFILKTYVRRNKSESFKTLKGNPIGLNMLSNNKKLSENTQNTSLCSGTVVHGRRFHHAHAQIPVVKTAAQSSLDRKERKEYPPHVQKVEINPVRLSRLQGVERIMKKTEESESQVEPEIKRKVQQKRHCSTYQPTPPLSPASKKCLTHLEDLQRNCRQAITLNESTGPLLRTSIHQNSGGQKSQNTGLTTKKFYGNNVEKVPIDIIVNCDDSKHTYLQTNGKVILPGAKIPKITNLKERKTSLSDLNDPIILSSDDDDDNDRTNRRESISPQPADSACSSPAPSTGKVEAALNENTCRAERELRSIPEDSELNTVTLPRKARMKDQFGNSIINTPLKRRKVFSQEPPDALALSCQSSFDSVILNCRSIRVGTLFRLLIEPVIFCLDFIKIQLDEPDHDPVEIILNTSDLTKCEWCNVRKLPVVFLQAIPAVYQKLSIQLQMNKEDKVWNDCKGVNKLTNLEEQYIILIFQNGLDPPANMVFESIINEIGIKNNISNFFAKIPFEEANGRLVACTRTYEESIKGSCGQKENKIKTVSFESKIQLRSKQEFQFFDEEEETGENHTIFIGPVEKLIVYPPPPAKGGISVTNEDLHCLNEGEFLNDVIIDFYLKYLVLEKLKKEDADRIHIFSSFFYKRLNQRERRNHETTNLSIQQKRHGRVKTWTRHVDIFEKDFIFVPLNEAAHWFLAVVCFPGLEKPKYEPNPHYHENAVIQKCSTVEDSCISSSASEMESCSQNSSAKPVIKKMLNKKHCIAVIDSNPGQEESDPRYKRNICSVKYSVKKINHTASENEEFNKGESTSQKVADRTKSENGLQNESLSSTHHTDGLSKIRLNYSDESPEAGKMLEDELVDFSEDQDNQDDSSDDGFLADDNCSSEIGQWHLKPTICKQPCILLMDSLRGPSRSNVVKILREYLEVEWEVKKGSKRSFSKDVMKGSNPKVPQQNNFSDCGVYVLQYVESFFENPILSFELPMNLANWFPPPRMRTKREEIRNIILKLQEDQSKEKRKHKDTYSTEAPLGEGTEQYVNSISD
The class given is functional.

For a further assay, the target named is T5, Caspase-3 (Homo sapiens, UniProt P42574).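 Note: Dose-response selectivity test against caspase-3 for candidate inhibitors of sentrin-specific proteases (SENPs).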
T5 sequence (P42574 whole entry): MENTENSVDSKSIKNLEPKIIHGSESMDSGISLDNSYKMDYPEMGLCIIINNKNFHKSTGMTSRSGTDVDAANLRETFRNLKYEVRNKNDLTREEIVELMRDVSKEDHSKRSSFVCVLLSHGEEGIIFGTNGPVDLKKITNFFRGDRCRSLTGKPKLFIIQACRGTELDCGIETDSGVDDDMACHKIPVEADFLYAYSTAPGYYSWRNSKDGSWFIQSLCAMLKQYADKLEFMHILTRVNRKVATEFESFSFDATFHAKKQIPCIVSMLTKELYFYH
The class given is functional.

The target in assay [6] is T6, Small ubiquitin-related modifier 1 (Homo sapiens, UniProt P63165). As to the kind of experiment: inhibitors of SUMO1 peptide binding, dose response, biochemical, fluorescence polarization, uHTS hits (AID 624382). The conditions noted are these: read-out: IC50_Mean. The class given is functional.
T6 sequence (P63165 whole entry): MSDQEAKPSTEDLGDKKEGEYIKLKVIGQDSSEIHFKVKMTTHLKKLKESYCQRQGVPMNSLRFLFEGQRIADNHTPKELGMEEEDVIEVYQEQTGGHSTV
Another assay concerns INS1. As to the kind of experiment: beta cell apoptosis inhibitors, cytokine rescue, dose response, luminescence, retest (AID 449756).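 Note: cell death triggered by IL-1 beta plus TNF-alpha plus IFN-gamma mixture; protective hits raise ATP signal compared with cytokine alone wells.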 The class given is functional, cell-based. The conditions noted are these: Rattus norvegicus.
Assay [7] concerns the target Induced myeloid leukemia cell differentiation protein Mcl-1 (Homo sapiens, UniProt Q07820). The class given is functional.
The target in assay [8] is T6, Small ubiquitin-related modifier 1. As to the kind of experiment: inhibitors of SUMO1 partner interactions, dose response, biochemical, FRET (AID 624383). The settings on record: read-out: IC50_Mean. The class given is functional.
For the next assay, the target named is Fatty acid synthase (Homo sapiens, UniProt P49327). As to the kind of experiment: FAS thioesterase domain inhibitors, dose response, biochemical, kinetic fluorescence intensity (AID 624326).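 Note: rate of fluorescence rise from hydrolysis of a fluorogenic O-methyl fluorescein ester substrate.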 The class given is functional.
Chain of Fatty acid synthase (P49327 whole entry, the tested form may be a part): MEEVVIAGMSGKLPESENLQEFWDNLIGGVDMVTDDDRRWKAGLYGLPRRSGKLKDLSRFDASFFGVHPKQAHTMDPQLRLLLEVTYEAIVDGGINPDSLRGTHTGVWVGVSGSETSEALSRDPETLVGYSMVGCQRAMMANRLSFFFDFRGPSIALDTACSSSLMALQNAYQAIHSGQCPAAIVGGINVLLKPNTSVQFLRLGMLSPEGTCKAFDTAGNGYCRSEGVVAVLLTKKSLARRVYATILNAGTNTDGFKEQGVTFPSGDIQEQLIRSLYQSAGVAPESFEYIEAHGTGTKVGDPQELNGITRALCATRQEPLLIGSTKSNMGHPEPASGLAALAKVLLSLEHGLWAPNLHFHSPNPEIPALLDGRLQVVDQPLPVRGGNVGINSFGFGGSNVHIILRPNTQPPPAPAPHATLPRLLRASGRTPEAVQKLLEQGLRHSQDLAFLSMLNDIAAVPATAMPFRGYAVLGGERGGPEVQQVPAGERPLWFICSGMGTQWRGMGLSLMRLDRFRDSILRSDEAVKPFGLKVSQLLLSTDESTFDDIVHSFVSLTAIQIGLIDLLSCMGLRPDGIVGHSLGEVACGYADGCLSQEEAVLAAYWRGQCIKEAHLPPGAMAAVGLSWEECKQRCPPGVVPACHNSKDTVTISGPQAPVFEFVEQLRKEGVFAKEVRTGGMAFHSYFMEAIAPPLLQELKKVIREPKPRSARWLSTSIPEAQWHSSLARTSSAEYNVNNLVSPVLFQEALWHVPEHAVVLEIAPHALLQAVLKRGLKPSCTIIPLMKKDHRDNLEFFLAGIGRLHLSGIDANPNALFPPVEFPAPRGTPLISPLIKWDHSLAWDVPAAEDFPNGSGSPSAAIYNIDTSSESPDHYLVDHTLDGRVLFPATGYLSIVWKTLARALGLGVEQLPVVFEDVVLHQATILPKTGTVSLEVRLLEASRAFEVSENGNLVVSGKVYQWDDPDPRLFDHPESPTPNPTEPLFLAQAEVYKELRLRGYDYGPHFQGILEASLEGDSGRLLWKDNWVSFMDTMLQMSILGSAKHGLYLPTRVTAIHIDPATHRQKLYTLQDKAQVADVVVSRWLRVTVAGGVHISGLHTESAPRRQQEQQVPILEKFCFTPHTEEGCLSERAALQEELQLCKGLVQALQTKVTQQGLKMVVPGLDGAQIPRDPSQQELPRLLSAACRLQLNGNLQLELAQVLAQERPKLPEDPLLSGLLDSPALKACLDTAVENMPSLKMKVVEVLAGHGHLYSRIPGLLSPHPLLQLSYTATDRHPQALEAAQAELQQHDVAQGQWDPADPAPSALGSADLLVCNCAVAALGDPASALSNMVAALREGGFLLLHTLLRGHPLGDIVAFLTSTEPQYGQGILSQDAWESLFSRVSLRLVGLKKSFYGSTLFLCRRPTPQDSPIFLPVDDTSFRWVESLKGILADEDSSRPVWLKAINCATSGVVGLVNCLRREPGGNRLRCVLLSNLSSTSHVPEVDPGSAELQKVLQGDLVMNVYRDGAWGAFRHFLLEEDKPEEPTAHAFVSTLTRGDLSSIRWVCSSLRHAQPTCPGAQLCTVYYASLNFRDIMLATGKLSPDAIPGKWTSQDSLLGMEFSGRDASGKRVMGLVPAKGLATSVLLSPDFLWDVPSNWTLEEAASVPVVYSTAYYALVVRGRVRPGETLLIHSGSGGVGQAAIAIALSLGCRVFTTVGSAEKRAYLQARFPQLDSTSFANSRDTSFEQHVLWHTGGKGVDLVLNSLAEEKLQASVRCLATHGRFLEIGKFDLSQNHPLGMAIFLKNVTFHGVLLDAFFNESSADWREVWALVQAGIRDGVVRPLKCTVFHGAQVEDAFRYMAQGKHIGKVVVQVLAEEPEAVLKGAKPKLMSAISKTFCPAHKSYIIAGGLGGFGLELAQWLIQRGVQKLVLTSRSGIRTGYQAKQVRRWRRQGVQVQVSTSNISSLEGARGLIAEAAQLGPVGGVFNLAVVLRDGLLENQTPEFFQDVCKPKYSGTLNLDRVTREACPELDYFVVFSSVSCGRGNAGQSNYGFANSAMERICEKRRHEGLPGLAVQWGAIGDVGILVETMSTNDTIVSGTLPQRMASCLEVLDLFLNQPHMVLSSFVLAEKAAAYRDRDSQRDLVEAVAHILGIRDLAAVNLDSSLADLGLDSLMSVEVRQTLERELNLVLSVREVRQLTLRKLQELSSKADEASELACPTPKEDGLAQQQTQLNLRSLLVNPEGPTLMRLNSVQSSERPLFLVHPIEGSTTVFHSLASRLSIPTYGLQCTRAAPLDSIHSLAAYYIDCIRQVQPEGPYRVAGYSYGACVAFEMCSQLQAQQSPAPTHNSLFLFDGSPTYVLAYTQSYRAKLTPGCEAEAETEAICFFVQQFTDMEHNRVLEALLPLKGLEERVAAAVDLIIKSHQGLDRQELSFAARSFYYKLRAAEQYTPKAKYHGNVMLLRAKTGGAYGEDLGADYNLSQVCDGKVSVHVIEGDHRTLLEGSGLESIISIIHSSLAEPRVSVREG

Chain of Induced myeloid leukemia cell differentiation protein Mcl-1 (Q07820 whole entry): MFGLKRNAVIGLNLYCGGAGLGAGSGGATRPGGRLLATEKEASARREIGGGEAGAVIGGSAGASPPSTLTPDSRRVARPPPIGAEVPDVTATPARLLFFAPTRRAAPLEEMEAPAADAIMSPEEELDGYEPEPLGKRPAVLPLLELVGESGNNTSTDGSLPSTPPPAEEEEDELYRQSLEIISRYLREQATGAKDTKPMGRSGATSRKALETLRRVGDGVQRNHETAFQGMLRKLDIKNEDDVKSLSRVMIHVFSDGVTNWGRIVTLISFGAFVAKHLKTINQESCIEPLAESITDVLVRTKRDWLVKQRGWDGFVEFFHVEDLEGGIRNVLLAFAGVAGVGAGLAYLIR

As for `O=C(Nc1nccs1)c1ccc(-c2ccccc2Cl)o1`, the IC50 was 25.1 µM (active) in assay [1]; > 100 µM (inactive) on Protein skinhead-1; 4.57 µM (active) in assay [4]; > 100 µM (inactive) in assay [5]; 22 µM (active) at Caspase-3. Besides, the values for the EC50 (in [2]; in assay [3]; with H4) were 106 µM (active), 27 µM (active) and 23.5 µM (inconclusive), respectively.

With `O=C(Nc1ccc(Nc2ccncc2)cc1)c1ccc(Nc2ccnc3ccc([N+](=O)[O-])cc23)cc1[N+](=O)[O-]`, the IC50 was > 66.6 µM (inactive) in assay [6], 2.46 µM (active) in [7] and 10.3 µM (active) in [8]. For the same compound, the half-maximal activity concentration (AC50) – broadly, the concentration at which the activity in the assay is half-maximal – in the assay with INS1 is 10.5 µM (active).

Turning to `O=C(OCc1ccc([N+](=O)[O-])cc1)c1cc([N+](=O)[O-])ccc1N1CCOCC1`, the IC50 on Fatty acid synthase is 2.73 µM (active).
